# From the supplement of paper PMC10307832
# What was measured:
# Experiment in all cases: relative viability (nuclei count vs DMSO), 5 days (fraction); higher = more cells survive
# [1] = test system: EMC-BAC-2
# Summary of the method: (§1)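 For relative viability, nuclei counts in treated wells were divided by those in vehicle wells. Lung cancer cell lines had been pin-tool dosed in 1536-well plates the day after seeding and cultured for 5 days, then fixed and stained in one step (final 0.05% Triton X-100, 1% formaldehyde, 1 ug/ml Hoechst) and imaged at 4×. Doses were one drug alone or a fixed anchor-drug dose plus five library-drug doses (not always all listed) in √10 steps, and values are duplicate-plate medians.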
# [2] = test system: EPLC-272H
# Summary of the method: as §1
# [3] = test system: H3255
# Summary of the method: as §1
# [4] = test system: HOP-62
# Summary of the method: as §1
# [5] = test system: LCLC-97TM1
# Summary of the method: as §1
# [6] = test system: LXF-289
# Summary of the method: as §1
# [7] = test system: NCI-H1563
# Summary of the method: as §1
# [8] = test system: NCI-H1734
# Summary of the method: as §1
# [9] = test system: NCI-H1915
# Summary of the method: as §1
# [10] = test system: NCI-H1993
# Summary of the method: as §1
# [11] = test system: NCI-H2009
# Summary of the method: as §1
# [12] = test system: NCI-H2023
# Summary of the method: as §1
# [13] = test system: NCI-H2085
# Summary of the method: as §1
# [14] = test system: NCI-H2126
# Summary of the method: as §1
# [15] = test system: NCI-H2347
# Summary of the method: as §1
# [16] = test system: NCI-H322M
# Summary of the method: as §1
# [17] = test system: NCI-H647
# Summary of the method: as §1
# [18] = test system: NCI-H661
# Summary of the method: as §1
# [19] = test system: NCI-H727
# Summary of the method: as §1
# [20] = test system: PC-14
# Summary of the method: as §1
# [21] = test system: SK-LU-1
# Summary of the method: as §1
# [22] = test system: SW 1573
# Summary of the method: as §1
smiles,measurement,setting,value
Nc1ccn([C@@H]2O[C@H](CO)[C@@H](O)[C@@H]2O)c(=O)n1 [Cytarabine] + N=C(N)NC(=N)NCCc1ccccc1 [Phenformin] (partner 250 µM),relative viability,[1]; first compound 0.005 µM,0.418
same,relative viability,[1]; first compound 0.01581 µM,0.482
same,relative viability,[1]; first compound 0.05 µM,0.398
same,relative viability,[1]; first compound 0.1581 µM,0.268
same,relative viability,[1]; first compound 0.5 µM,0.196
same,relative viability,[2]; first compound 0.005 µM,0.249
same,relative viability,[2]; first compound 0.01581 µM,0.277
same,relative viability,[2]; first compound 0.05 µM,0.26
same,relative viability,[2]; first compound 0.1581 µM,0.147
same,relative viability,[2]; first compound 0.5 µM,0.214
same,relative viability,[3]; first compound 0.005 µM,0.301
same,relative viability,[3]; first compound 0.01581 µM,0.336
same,relative viability,[3]; first compound 0.05 µM,0.296
same,relative viability,[3]; first compound 0.1581 µM,0.25
same,relative viability,[3]; first compound 0.5 µM,0.273
same,relative viability,[4]; first compound 0.005 µM,0.506
same,relative viability,[4]; first compound 0.01581 µM,0.486
same,relative viability,[4]; first compound 0.05 µM,0.399
same,relative viability,[4]; first compound 0.1581 µM,0.156
same,relative viability,[4]; first compound 0.5 µM,0.152
same,relative viability,[5]; first compound 0.005 µM,0.426
same,relative viability,[5]; first compound 0.01581 µM,0.34
same,relative viability,[5]; first compound 0.05 µM,0.354
same,relative viability,[5]; first compound 0.1581 µM,0.201
same,relative viability,[5]; first compound 0.5 µM,0.168
same,relative viability,[6]; first compound 0.005 µM,0.413
same,relative viability,[6]; first compound 0.01581 µM,0.406
same,relative viability,[6]; first compound 0.05 µM,0.341
same,relative viability,[6]; first compound 0.1581 µM,0.129
same,relative viability,[6]; first compound 0.5 µM,0.0821
same,relative viability,[7]; first compound 0.005 µM,0.548
same,relative viability,[7]; first compound 0.01581 µM,0.642
same,relative viability,[7]; first compound 0.05 µM,0.706
same,relative viability,[7]; first compound 0.1581 µM,0.56
same,relative viability,[7]; first compound 0.5 µM,0.567
same,relative viability,[8]; first compound 0.005 µM,0.322
same,relative viability,[8]; first compound 0.01581 µM,0.219
same,relative viability,[8]; first compound 0.05 µM,0.191
same,relative viability,[8]; first compound 0.1581 µM,0.155
same,relative viability,[8]; first compound 0.5 µM,0.155
same,relative viability,[9]; first compound 0.005 µM,0.324
same,relative viability,[9]; first compound 0.01581 µM,0.328
same,relative viability,[9]; first compound 0.05 µM,0.329
same,relative viability,[9]; first compound 0.1581 µM,0.268
same,relative viability,[9]; first compound 0.5 µM,0.245
same,relative viability,[10]; first compound 0.005 µM,0.588
same,relative viability,[10]; first compound 0.01581 µM,0.483
same,relative viability,[10]; first compound 0.05 µM,0.529
same,relative viability,[10]; first compound 0.1581 µM,0.515
same,relative viability,[10]; first compound 0.5 µM,0.422
same,relative viability,[11]; first compound 0.005 µM,0.42
same,relative viability,[11]; first compound 0.01581 µM,0.503
same,relative viability,[11]; first compound 0.05 µM,0.455
same,relative viability,[11]; first compound 0.1581 µM,0.386
same,relative viability,[11]; first compound 0.5 µM,0.268
same,relative viability,[12]; first compound 0.005 µM,0.287
same,relative viability,[12]; first compound 0.01581 µM,0.224
same,relative viability,[12]; first compound 0.05 µM,0.183
same,relative viability,[12]; first compound 0.1581 µM,0.0883
same,relative viability,[12]; first compound 0.5 µM,0.0962
same,relative viability,[13]; first compound 0.005 µM,0.746
same,relative viability,[13]; first compound 0.01581 µM,0.67
same,relative viability,[13]; first compound 0.05 µM,0.757
same,relative viability,[13]; first compound 0.1581 µM,0.413
same,relative viability,[13]; first compound 0.5 µM,0.362
same,relative viability,[14]; first compound 0.005 µM,0.472
same,relative viability,[14]; first compound 0.01581 µM,0.464
same,relative viability,[14]; first compound 0.05 µM,0.421
same,relative viability,[14]; first compound 0.1581 µM,0.277
same,relative viability,[14]; first compound 0.5 µM,0.271
same,relative viability,[15]; first compound 0.005 µM,0.381
same,relative viability,[15]; first compound 0.01581 µM,0.383
same,relative viability,[15]; first compound 0.05 µM,0.296
same,relative viability,[15]; first compound 0.1581 µM,0.273
same,relative viability,[15]; first compound 0.5 µM,0.291
same,relative viability,[16]; first compound 0.005 µM,0.704
same,relative viability,[16]; first compound 0.01581 µM,0.614
same,relative viability,[16]; first compound 0.05 µM,0.53
same,relative viability,[16]; first compound 0.1581 µM,0.372
same,relative viability,[16]; first compound 0.5 µM,0.337
same,relative viability,[17]; first compound 0.005 µM,0.181
same,relative viability,[17]; first compound 0.01581 µM,0.204
same,relative viability,[17]; first compound 0.05 µM,0.193
same,relative viability,[17]; first compound 0.1581 µM,0.0662
same,relative viability,[17]; first compound 0.5 µM,0.0608
same,relative viability,[18]; first compound 0.005 µM,0.264
same,relative viability,[18]; first compound 0.01581 µM,0.254
same,relative viability,[18]; first compound 0.05 µM,0.239
same,relative viability,[18]; first compound 0.1581 µM,0.23
same,relative viability,[18]; first compound 0.5 µM,0.237
same,relative viability,[19]; first compound 0.005 µM,0.451
same,relative viability,[19]; first compound 0.01581 µM,0.479
same,relative viability,[19]; first compound 0.05 µM,0.486
same,relative viability,[19]; first compound 0.1581 µM,0.406
same,relative viability,[19]; first compound 0.5 µM,0.429
same,relative viability,[20]; first compound 0.005 µM,0.499
same,relative viability,[20]; first compound 0.01581 µM,0.316
same,relative viability,[20]; first compound 0.05 µM,0.259
same,relative viability,[20]; first compound 0.1581 µM,0.0817
same,relative viability,[20]; first compound 0.5 µM,0.0908
same,relative viability,[21]; first compound 0.005 µM,0.353
same,relative viability,[21]; first compound 0.01581 µM,0.413
same,relative viability,[21]; first compound 0.05 µM,0.445
same,relative viability,[21]; first compound 0.1581 µM,0.241
same,relative viability,[21]; first compound 0.5 µM,0.2
same,relative viability,[22]; first compound 0.005 µM,0.342
same,relative viability,[22]; first compound 0.01581 µM,0.287
same,relative viability,[22]; first compound 0.05 µM,0.218
same,relative viability,[22]; first compound 0.1581 µM,0.131
same,relative viability,[22]; first compound 0.5 µM,0.109
